Reference: article PMC10349806 (Nature Communications, 2023)
Several values for one entry are separate records, joined by “and”; a condition that tells them apart may be missing. Equal values may be shown once.

Assays:
[1] = test system: CCN(CC)CCCC(C)Nc1ccnc2cc(Cl)ccc12; assay: Drug uptake assay, X. laevis oocytes expressing PfCRT^Dd2; type: cell-based, Plasmodium falciparum; conditions: 18.0 °C
Method: Oocytes were obtained as described previously[24]. Briefly, adult (>2 years old) female X. laevis frogs (NASCO) were anesthetized in a cooled solution of ethyl 3-amino benzoate methanesulfonate (0.1%, w/v), followed by a surgical removal of parts of the ovary. The ovary lobes were carefully dissected and small pieces of oocytes were incubated in Ca^2+-free ND96 buffer (96 mM NaCl, 2 mM KCl, 1 mM MgCl2 buffered with 5 mM HEPES/NaOH, pH 7.5) supplemented with collagenase D (0.1%, w/v; Roche), BSA (0.5%, w/v), and 9 mm Na2HPO4 at 18 °C for 14-16 h while gentle shaking. After incubation, the oocytes were carefully washed several times with ND96 buffer (96 mM NaCl, 2 mM KCl, 1.8 mM CaCl2, 1 mM MgCl2 buffered with 5 mM HEPES/NaOH, pH 7.5) supplemented with 100 mg l^−1 gentamycin). Defolliculated and healthy-looking stage V-VI oocytes were manually selected for RNA microinjection. […]
Drug uptake assays were performed as described previously[21],[22],[24],[34]. […] Oocytes that were injected with water instead of RNA were analyzed in parallel, representing the uptake of a drug by diffusion and/or endogenous permeation pathways. […] The specific PfCRT-mediated uptake was determined by subtracting the corresponding background value measured in water-injected oocytes from that of PfCRT-expressing oocytes. […]

PfCRT^Dd2 = PfCRT^Dd2 (Plasmodium falciparum, UniProt Q9N623, A220S/I356T/K76T/M74I/N326S/N75E/Q271E/R371I); assay: as above; type: cell-based; conditions: for PfCRTDd2 transport activity pH 6.0: 50 µM external drug, 1 h, independent samples (means in Fig 4c)
Method: (§1) Oocytes were obtained as described previously. Briefly, adult (>2 years old) female X. laevis frogs (NASCO) were anesthetized in a cooled solution of ethyl 3-amino benzoate methanesulfonate (0.1%, w/v), followed by a surgical removal of parts of the ovary. The ovary lobes were carefully dissected and small pieces of oocytes were incubated in Ca^2+-free ND96 buffer (96 mM NaCl, 2 mM KCl, 1 mM MgCl2 buffered with 5 mM HEPES/NaOH, pH 7.5) supplemented with collagenase D (0.1%, w/v; Roche), BSA (0.5%, w/v), and 9 mm Na2HPO4 at 18 °C for 14-16 h while gentle shaking. After incubation, the oocytes were carefully washed several times with ND96 buffer (96 mM NaCl, 2 mM KCl, 1.8 mM CaCl2, 1 mM MgCl2 buffered with 5 mM HEPES/NaOH, pH 7.5) supplemented with 100 mg l^−1 gentamycin). Defolliculated and healthy-looking stage V-VI oocytes were manually selected for RNA microinjection. The RNA was generated as following: The codon-optimized sequences of PfCRT variants were cloned into the pSP64T expression vector. After vector linearization using the restriction endonucleases BamHI or SalI (New England Biolabs), transcription was performed using the in vitro SP6 mMessage mMachine Kit (Ambion)[34]. The obtained RNA was kept at −80 °C and diluted with nuclease-free water to a concentration of 0.6 μg μl^−1. Precision-bore glass capillary tubes (3.5-inch glass capillaries; Drummond Scientific Co.) were pulled on a vertical puller (P-87 Flaming/Brown micropipette puller, Sutter Instrument Co.), graduated, and placed on a microinjector (Nanoject II Auto-Nanoliter Injector, Drummond Scientific Co.). 50 nl of nuclease-free water alone (control oocytes) or 50 nl of 0.6 μg μl^−1 RNA were injected under stereomicroscopic control. Injected oocytes were incubated for 46–72 h at 18 °C with twice-daily buffer changes before usage in experiments.
Drug uptake assays were performed as described previously[21],[22],[24],[34]. […] The direction of radio-labeled drug transport is here from the mostly acidic extracellular solution (pH 4.5 or 6.0, as indicated) into the oocyte cytosol (pH ∼ 7.2), which corresponds to the efflux of drug from the acidic digestive vacuole (pH 5.2) into the parasite cytoplasm (pH 7.2). The topology of PfCRT in the oolemma is such that both the N- and C-terminus face the extracellular milieu[3],[22]. In the parasite, the N- and C-terminus face the lumen of the digestive vacuole. […] For determination of the amount of drug uptake for each oocyte, the reaction medium was removed and the oocytes were washed three times with 2 ml of ice-cold ND96 buffer. Each oocyte was individually transferred to a scintillation vial containing 5% sodium dodecyl sulfate (200 μl) for lysis. […] Oocytes that were injected with water instead of RNA were analyzed in parallel, representing the uptake of a drug by diffusion and/or endogenous permeation pathways. The resulting value represents the “background“ level of drug accumulation in oocytes (in-depth discussion in[22]). The specific PfCRT-mediated uptake was determined by subtracting the corresponding background value measured in water-injected oocytes from that of PfCRT-expressing oocytes. In all cases, at least three separate experiments were performed on oocytes from different frogs (biological replicate), and for each condition in an experiment, measurements were made from 10 oocytes per treatment. For pH 5.5, 6.0, and 6.5, ND96 was buffered with 5 mM MES/Tris base. For pH 4.5, 5 mM Homo-Pipes was used as a buffer and 5 mM HEPES for uptake at pH 7.0.

PfCRT variant E207A = assay: Drug uptake assay, oocytes expressing E207A; type: cell-based, Plasmodium falciparum; conditions: for E207A transport activity pH 4.5 / E207A transport activity pH 6.0: 50 µM external drug, 1 h
Method: Site-directed mutagenesis of PfCRT^Dd2 was performed as described using the megaprimer method with overlap extension[21],[54]. The primer pairs used are listed in Supplementary Table 6. Please note that a codon-optimized and oocyte-adapted version of PfCRT^Dd2 was used[22] (Supplementary Fig. 16). The resulting DNA fragment was cloned into the SP64T expression vector and verified by sequencing.
as §1
Drug uptake assays were performed as described previously[21],[22],[24],[34]. […] The direction of radio-labeled drug transport is here from the mostly acidic extracellular solution (pH 4.5 or 6.0, as indicated) into the oocyte cytosol (pH ∼ 7.2), which corresponds to the efflux of drug from the acidic digestive vacuole (pH 5.2) into the parasite cytoplasm (pH 7.2). The topology of PfCRT in the oolemma is such that both the N- and C-terminus face the extracellular milieu[3],[22]. In the parasite, the N- and C-terminus face the lumen of the digestive vacuole. […] For determination of the amount of drug uptake for each oocyte, the reaction medium was removed and the oocytes were washed three times with 2 ml of ice-cold ND96 buffer. Each oocyte was individually transferred to a scintillation vial containing 5% sodium dodecyl sulfate (200 μl) for lysis. […] Oocytes that were injected with water instead of RNA were analyzed in parallel, representing the uptake of a drug by diffusion and/or endogenous permeation pathways. The resulting value represents the “background“ level of drug accumulation in oocytes (in-depth discussion in[22]). The specific PfCRT-mediated uptake was determined by subtracting the corresponding background value measured in water-injected oocytes from that of PfCRT-expressing oocytes. In all cases, at least three separate experiments were performed on oocytes from different frogs (biological replicate), and for each condition in an experiment, measurements were made from 10 oocytes per treatment. For pH 5.5, 6.0, and 6.5, ND96 was buffered with 5 mM MES/Tris base.

[2] = CQ transport in the presence of verapamil, independent samples

PfCRT^Dd2, sequence (Q9N623 whole entry A220S/I356T/K76T/M74I/N326S/N75E/Q271E/R371I): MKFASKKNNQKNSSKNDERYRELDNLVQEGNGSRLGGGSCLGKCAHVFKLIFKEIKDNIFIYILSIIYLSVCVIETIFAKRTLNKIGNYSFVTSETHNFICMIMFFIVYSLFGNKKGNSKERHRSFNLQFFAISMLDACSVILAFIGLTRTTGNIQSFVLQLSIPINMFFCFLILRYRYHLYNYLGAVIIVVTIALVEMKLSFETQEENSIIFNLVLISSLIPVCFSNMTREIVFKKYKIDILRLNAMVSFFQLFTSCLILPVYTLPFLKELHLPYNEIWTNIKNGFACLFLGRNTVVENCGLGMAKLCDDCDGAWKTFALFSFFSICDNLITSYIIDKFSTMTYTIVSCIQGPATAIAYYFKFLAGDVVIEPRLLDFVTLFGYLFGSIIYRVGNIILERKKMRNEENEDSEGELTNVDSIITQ

Compound	PfCRTDd2 transport activity pH 6.0 (PfCRT^Dd2)	E207A transport activity pH 4.5 (PfCRT variant E207A; independent samples)	E207A transport activity pH 6.0 (PfCRT variant E207A; independent samples)	also measured
PfCRT^Dd2 (Plasmodium falciparum; A220S/I356T/K76T/M74I/N326S/N75E/Q271E/R371I)				Km ([1]; other: PfCRT^Dd2, pH 4.5, pH 4.5): 200 ± 60 µM; Km ([1]; other: PfCRT^Dd2, pH 6.0, pH 6.0): 270 ± 50 µM
C=C[C@H]1C[N@@]2CC[C@H]1C[C@@H]2[C@@H](O)c1ccnc2ccc(OC)cc12 [QD, quinidine]	4.23 pmol oocyte-1 h-1 and 3.26 pmol oocyte-1 h-1 and 4.00 pmol oocyte-1 h-1 and 4.74 pmol oocyte-1 h-1 and 4.12 pmol oocyte-1 h-1 and 4.59 pmol oocyte-1 h-1	1.55 pmol oocyte-1 h-1 and 1.47 pmol oocyte-1 h-1 and 1.04 pmol oocyte-1 h-1 and 1.61 pmol oocyte-1 h-1	2.30 pmol oocyte-1 h-1 and 2.18 pmol oocyte-1 h-1 and 1.61 pmol oocyte-1 h-1 and 1.77 pmol oocyte-1 h-1 and 2.20 pmol oocyte-1 h-1	
CC[C@]1(O)C[C@H]2CN(CCc3c([nH]c4ccccc34)[C@@](C(=O)OC)(c3cc4c(cc3OC)N(C=O)[C@H]3[C@@](O)(C(=O)OC)[C@H](OC(C)=O)[C@]5(CC)C=CCN6CC[C@]43[C@@H]65)C2)C1 [VNC, vincristine]	n.u.		n.u.	transport of the drug by PfCRT^Dd2 (PfCRT^Dd2; pH 6.0, in words): Neither PfCRT^Dd2 nor E207A acted on; transport of the drug by E207A (PfCRT variant E207A; pH 6.0, in words): Neither PfCRT^Dd2 nor E207A acted on
C=C[C@H]1C[N@@]2CC[C@H]1C[C@H]2[C@H](O)c1ccnc2ccc(OC)cc12 [QN, quinine]	6.11 pmol oocyte-1 h-1 and 5.59 pmol oocyte-1 h-1 and 5.35 pmol oocyte-1 h-1 and 4.57 pmol oocyte-1 h-1	1.81 pmol oocyte-1 h-1 and 1.79 pmol oocyte-1 h-1 and 2.22 pmol oocyte-1 h-1 and 1.30 pmol oocyte-1 h-1 and 1.76 pmol oocyte-1 h-1	2.22 pmol oocyte-1 h-1 and 1.72 pmol oocyte-1 h-1 and 2.41 pmol oocyte-1 h-1 and 2.60 pmol oocyte-1 h-1	
Clc1ccc2c(N3CCN(CCCN4CCN(c5ccnc6cc(Cl)ccc56)CC4)CC3)ccnc2c1 [PPQ, piperaquine]	28.14 pmol oocyte-1 h-1 and 21.87 pmol oocyte-1 h-1 and 30.01 pmol oocyte-1 h-1 and 33.33 pmol oocyte-1 h-1	9.66 pmol oocyte-1 h-1 and 9.12 pmol oocyte-1 h-1 and 9.57 pmol oocyte-1 h-1 and 5.62 pmol oocyte-1 h-1	8.93 pmol oocyte-1 h-1 and 12.01 pmol oocyte-1 h-1 and 12.48 pmol oocyte-1 h-1 and 12.86 pmol oocyte-1 h-1	
NC12CC3CC(CC(C3)C1)C2 [AMA, amantadine]	3.96 pmol oocyte-1 h-1 and 5.23 pmol oocyte-1 h-1 and 3.48 pmol oocyte-1 h-1			
COc1ccc(CCN(C)CCCC(C#N)(c2ccc(OC)c(OC)c2)C(C)C)cc1OC (stereo not drawn) [VP, verapamil]				PfCRTDd2 CQ + VP transport activity pH 6.0 (PfCRT^Dd2; [2]): 1.45 pmol oocyte-1 h-1 and 1.56 pmol oocyte-1 h-1 and 1.71 pmol oocyte-1 h-1 and 1.84 pmol oocyte-1 h-1; effect on CQ transport by PfCRT^Dd2 (PfCRT^Dd2; pH 6.0, in words): blocked CQ transport; E207A CQ + VP transport activity pH 6.0 (PfCRT variant E207A; [2]): 0.66 pmol oocyte-1 h-1 and 0.74 pmol oocyte-1 h-1 and 0.45 pmol oocyte-1 h-1; effect on CQ transport by E207A (PfCRT variant E207A; pH 6.0, in words): blocked CQ transport
CC[C@]1(O)C[C@@H]2CN(CCc3c([nH]c4ccccc34)[C@@](C(=O)OC)(c3cc4c(cc3OC)N(C)[C@H]3[C@@](O)(C(=O)OC)[C@H](OC(C)=O)[C@]5(CC)C=CCN6CC[C@]43[C@@H]65)C2)C1 [VNB, vinblastine]	n.u.		n.u.	transport of the drug by PfCRT^Dd2 (PfCRT^Dd2; pH 6.0, in words): Neither PfCRT^Dd2 nor E207A acted on; transport of the drug by E207A (PfCRT variant E207A; pH 6.0, in words): Neither PfCRT^Dd2 nor E207A acted on
